Experimental data published in PubChem BioAssay (NCI).
“And” between values parts separate entries of the source, which are not always exact repeats. Identical values can stand only once.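 1) Cells in 96-well plates. 2) Compound, 48 h, 5 concentrations. 3) Linear interpolation between surrounding doses. 4) Unreached endpoint = highest concentration. GI50 marks 50% less growth. TGI: total growth inhibition.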

Key:
Experiment in all cases: growth of human tumour cells (NCI), 48 h
[1] = system: SNB-19 CNS
[2] = system: HCT-15 colon
[3] = system: A498 renal
[4] = system: HOP-92 NSCLC
[5] = system: UACC-62 melanoma
[6] = system: K-562 leukemia
[7] = system: OVCAR-4 ovarian
[8] = system: SF-295 CNS
[9] = system: SK-MEL-5 melanoma
[10] = system: MDA-MB-435

## Nn1c(N=Nc2c(O)[nH]c3ccccc23)n[nH]c1=S
[1]
  TGI: > 100 µM
[2]
  TGI: > 100 µM
[3]
  TGI: > 100 µM
[4]
  TGI: > 100 µM
[5]
  TGI: > 100 µM
[6]
  TGI: > 100 µM
[7]
  TGI: > 100 µM
[8]
  TGI: > 100 µM

## CC12OC3CC(O1)C1(C=O)C4CCC5(C)C(c6ccc(=O)oc6)CCC5(O)C4CCC1(C3)O2 (centres undefined)
[1]
  TGI: 1.78 µM
[2]
  TGI: 0.648 µM
[3]
  TGI: 1.35 µM
[4]
  TGI: 1.71 µM
[5]
  TGI: 0.781 µM
[9]
  TGI: 0.328 µM
[6]
  TGI: > 100 µM
[7]
  TGI: 0.308 µM
[8]
  TGI: 1.02 µM

## CCC[CH2][Sn]1([CH2]CCC)[O]C(=O)c2cc(C)ccc2[O]1
[1]
  GI50: 0.7 µM
  TGI: 1.93 µM
[2]
  GI50: 0.446 µM
  TGI: 1.45 µM
[3]
  GI50: 0.565 µM
  TGI: 1.79 µM
[4]
  GI50: 0.327 µM
  TGI: 1.65 µM
[5]
  GI50: 0.465 µM
  TGI: 1.56 µM
[9]
  GI50: 0.854 µM
  TGI: 2.11 µM
[6]
  GI50: 0.222 µM
  TGI: 1.16 µM
[7]
  GI50: 0.707 µM
  TGI: 2.06 µM
[8]
  GI50: 0.628 µM
  TGI: 1.99 µM

## N#CC12Cc3ccc4c(c3-c3cccc(c31)CCN2C(=O)c1ccccc1)OCO4 (centres undefined)
[1]
  TGI: > 100 µM
[2]
  TGI: > 100 µM
[3]
  TGI: > 100 µM
[4]
  TGI: > 100 µM
[5]
  TGI: > 100 µM
[9]
  TGI: > 100 µM
[6]
  TGI: > 100 µM
[8]
  TGI: > 100 µM

## CCc1ccccc1-n1c(N)c(C#N)c(-c2ccc(OC)c(OC)c2)c(C#N)c1=O
[1]
  GI50: 20.5 µM
  TGI: 59 µM
[2]
  GI50: 37.4 µM
  TGI: > 100 µM
[10]
  GI50: 34.7 µM
  TGI: > 100 µM
[4]
  GI50: 0.283 µM
  TGI: 29 µM
[5]
  GI50: 16.3 µM
  TGI: 37.7 µM
[9]
  GI50: 32.7 µM
  TGI: > 100 µM
[6]
  GI50: > 100 µM
  TGI: > 100 µM
[7]
  GI50: 23.1 µM
  TGI: 63 µM
[8]
  GI50: 22.4 µM
  TGI: 61.1 µM

## CC[C@@]1(OC(=O)CN)C(=O)OCc2c1cc1n(c2=O)Cc2cc3c(N)c4c(cc3nc2-1)OCO4
[1]
  GI50: 0.000124 µM
  TGI: > 100 µM
[2]
  GI50: 0.0409 µM and 0.147 µM
  TGI: > 100 µM
[10]
  GI50: 0.00328 µM and 0.0183 µM
[3]
  GI50: 0.00226 µM
  TGI: 0.0661 µM
[5]
  GI50: < 0.0001 µM
  TGI: 0.0246 µM
[9]
  GI50: 0.000182 µM
  TGI: 0.139 µM
[6]
  GI50: 0.00254 µM
  TGI: 0.508 µM
[7]
  GI50: 0.0507 µM and 0.0386 µM
  TGI: 0.356 µM and 0.658 µM
[8]
  GI50: < 0.0001 µM

## CC12C(=O)N(CCN)C(=O)C1C1c3ccccc3C2c2ccccc21 (centres undefined)
[1]
  TGI: > 100 µM
[2]
  TGI: > 100 µM
[3]
  TGI: > 100 µM
[4]
  TGI: 98.4 µM
[5]
  TGI: > 100 µM
[9]
  TGI: > 100 µM
[6]
  TGI: > 100 µM
[7]
  TGI: > 100 µM
[8]
  TGI: > 100 µM

## Cc1cc(C)c2[s+]snc2c1
[1]
  TGI: > 100 µM
[3]
  TGI: > 100 µM
[5]
  TGI: > 100 µM
[9]
  TGI: > 100 µM
[6]
  TGI: > 100 µM
[7]
  TGI: > 100 µM
[8]
  TGI: > 100 µM

## CCOc1ccc(NC(=O)CCC(=O)NN)cc1
[1]
  TGI: > 100 µM
[2]
  TGI: > 100 µM
[4]
  TGI: > 100 µM
[9]
  TGI: > 100 µM
[6]
  TGI: > 100 µM
[7]
  TGI: > 100 µM
[8]
  TGI: > 100 µM

## NNC(=S)N/N=C/C(Cl)=C(\Cl)C(=O)O
[1]
  TGI: > 100 µM
[2]
  TGI: > 100 µM
[3]
  TGI: > 100 µM
[4]
  TGI: > 100 µM
[5]
  TGI: > 100 µM
[9]
  TGI: > 100 µM
[6]
  TGI: > 100 µM
[7]
  TGI: > 100 µM
[8]
  TGI: > 100 µM
